Measurements as given in patent US6335339B1, “Triazine antiviral compounds” (Scriptgen Pharmaceuticals, Inc., priority 1998, dated 2002).
pIC50: −log10 of the molar value.

Tests used:
[1] = system: HBV εRNA; experiment: εRNA/oligonucleotide hybridization inhibition assay with rRNA competitor; format: binding, Hepatitis B virus; conditions: for pIC50: radiolabeled εRNA, 60-fold excess rRNA competitor; for Specificity: ratio RRE+rRNA IC50/εRNA+rRNA IC50, max = inactive in RRE assay
Source text: One assay used in determining the activity of the compounds of the present invention is disclosed in copending U.S. patent application Ser. No. 08/709,342, filed Sep. 6, 1996, the disclosure of which is hereby incorporated herein by reference in its entirety. The assay detects the interaction between target RNA molecule and a test ligand by measuring the ligand's ability to inhibit hybridization between the RNA and a specific complementary oligonucleotide. In one embodiment, the target RNA is radiolabelled and the oligonucleotide is labeled with biotin; in this case, the extent of hybridization is determined by measuring the amount of radiolabeled RNA detected with a streptavidin/biotin-based capture system.
Concentrations of test compounds of between about 0.1 μM and about 200 μM are assayed for inhibition using radiolabeled εRNA in the absence or presence of a large excess of an unlabeled non-specific RNA competitor (such as, e.g., ribosomal RNA, rRNA). Compounds that bind εRNA non-specifically are competitively displaced by the rRNA, resulting in reduced or no inhibition of hybridization between the radiolabeled εRNA and the biotinylated oligonucleotide. Conversely, the inhibitory activity of compounds that specifically bind εRNA is not affected by the presence of the competitor rRNA.
The high throughput assays were performed in 96-well plates containing eighty drugs (5 μl, 60 μg/ml in DMSO) distributed one per well in columns 2-6 and 8-12 of the 8×12 96-well array. The remaining 16 wells in columns 1 and 7 were filled with 5 μl DMSO to serve as the control reactions. 45 μl of reaction mixture containing buffer, salts and radiolabeled target RNA were delivered on each well of the compound-containing plates to yield a 50 μl mixture containing 50 mM Tris-HCl, pH 7.5, 200 mM KCl, 5 mM MgCl2, 5 mM DTT, 6 μg/ml test compound, and 25 nM [^32 P]-labeled εRNA. The reaction was started by addition of the biotinylated oligonucleotide, 262.104 A (5 μl) to a final concentration of 100 nM. The reaction was incubated at 25° C. for 60 minutes, and then 5 μl of 0.3 mg/ml SAAP (streptavidin alkaline phosphatase conjugate, Pierce, Rockford, Ill.) was added. The reaction was incubated for an additional 30 minutes at 25° C. and filtered through 96-well format HATF nitrocellulose filters (Millipore, Bedford, Mass.) using a multiscreen vacuum manifold (Millipore, Bedford, Mass.). Subsequently, 300 μl of wash buffer (50 mM Tris-HCl, pH 7.5, 200 mM KCl) was filtered through to wash the filters. The filters were dried and supplemented with 20 μl scintillation fluid (Super Mix, Wallac Oy, Turku, Finland). The amount of hybrids formed was determined by scintillation counting of the radiolabeled εRNA retained on the filters.
The inhibitory effect of a test compound (expressed as percentage of inhibition, % Inh.) was calculated using the following formula: […]
where Ro is the average retention of hybrids in the 16 identical control reactions in columns 1 and 7 and Rx is the hybrids retained in the presence of a test drug, x.
(§1) Biotinylated oligonucleotides 262.104 A (5′-biotin-TTAGGCACAGCTTGGAGGCTTGAACAGTG-3′) and 208.92 A (5′-biotin-CGTCATTGACGCTGCGCCCA-3′) were synthetically prepared (Oligos Etc., Willsonville, Oreg.). These oligonucleotides are complementary to regions of the εRNA and RRE RNA targets, respectively.
A plasmid containing the target sequence following the bacteriophage SP6 promoter was used as a template for the synthesis of radiolabeled εRNA using [α^32 P]-UTP and SP6 RNA polymerase as described by the suppliers, e.g., Ambion, Austin, Tex., and by methods well known to those of ordinary skill in the art.
Compounds that inhibited the primary screening assay described above were individually titrated in the same assay at concentrations between 0.1 μM and 200 μM in the absence and presence of 60-fold excess rRNA as a non-specific competitor. […]

[2] = system: HIV derived RRE RNA; experiment: heterologous hybridization inhibition assay with RRE RNA; format: binding; conditions: radiolabeled RRE RNA, rRNA competitor
Source text: Specificity is further tested in a third assay in which the radiolabeled RNA is the HIV derived RRE RNA and the biotinylated oligonucleotide is complementary to RRE. Compounds with high specific activity for εRNA are not expected to be inhibitory in the RRE RNA based assay. The specificity of the ligand for εRNA is expressed as the ratio between the IC50 value obtained with the specific target RNA and the IC50 value obtained with a heterologous target (RRE RNA), both in the presence of competitor RNA.
as §1
Compounds that inhibited the primary screening assay described above were individually titrated in the same assay at concentrations between 0.1 μM and 200 μM in the absence and presence of 60-fold excess rRNA as a non-specific competitor. A third titration was performed in a heterologous assay using radiolabeled RRE RNA as the target and the complementary biotinylated oligonucleotide 208.92 A. From these three assays, the IC50 values and specificity for each compound was calculated.
IC50 values using rRNA competitor (from Example 1) and radiolabeled RRE RNA are shown in Table 1 for the following ligands. […] Specificity is calculated as the ratio of RRE+rRNA IC50/εRNA+rRNA IC50.

Row | Structure (SMILES) | pIC50 [1] | Specificity [1] | RRE + rRNA IC50 (μM) [2] | pIC50 [2]
1 | O=[N+]([O-])c1ccc(Nc2nc(NN=Cc3cccc(F)c3)nc(N3CCCCCC3)n2)cc1 [Compound 78] | 3.88 | max. | inactive | 
2 | Fc1ccc(Nc2nc(Nc3cccc(C(F)(F)F)c3)nc(N3CCOCC3)n2)cc1 [Compound 71] | 4.00 | max. | inactive | 
3 | Brc1cc2c(cc1C=NNc1nc(Nc3ccccc3)nc(N3CCCCC3)n1)OCO2 [Compound 70] | 4.09 | max. | inactive | 
4 | CCCCN(CCCC)c1nc(NN=Cc2cc(Br)cc(Br)c2OC)nc(Nc2ccc([N+](=O)[O-])cc2)n1 [Compound 72] | 3.92 | max. | inactive | 
5 | O=[N+]([O-])c1ccc(Nc2nc(NN=Cc3ccc(O)cc3)nc(N3CCCCC3)n2)cc1 [Compound 111] | 4.64 | 20.0 |  | 3.34
6 | O=[N+]([O-])c1ccc(Nc2nc(NN=Cc3c(O)ccc4ccccc34)nc(N3CCOCC3)n2)cc1 [Compound 96] | 4.82 | 5.0 |  | 4.12
7 | CN1CCN(c2nc(NN=Cc3cccc(Br)c3)nc(Nc3ccc([N+](=O)[O-])cc3)n2)CC1 [Compound 95] | 4.86 | 2.8 |  | 4.41
8 | Cc1cc(I)cc(C=NNc2nc(Nc3ccc([N+](=O)[O-])cc3)nc(N3CCCCC3)n2)c1O [Compound 109] | 4.70 | 1.8 |  | 4.46
9 | O=[N+]([O-])c1ccc(Nc2nc(NN=CC(Br)=Cc3ccccc3)nc(Nc3ccccc3)n2)cc1 [Compound 17] | 4.82 | max. | inactive | 
10 | CCCCN(CCCC)c1nc(NN=C(C)c2ccc([N+](=O)[O-])cc2)nc(Nc2ccc([N+](=O)[O-])cc2)n1 [Compound 82] | 3.82 | max. | inactive | 
11 | O=C(C(=NNc1nc(NCc2ccccc2)nc(Nc2ccc([N+](=O)[O-])cc2)n1)c1ccccc1)c1ccccc1 [Compound 131] | 4.44 | 1.0 |  | 4.44
12 | COc1ccc(Nc2nc(NN=Cc3c[nH]c4ccccc34)nc(Nc3ccccc3)n2)cc1 [Compound 36] | 4.54 | 53.8 |  | 2.81
13 | C(=NNc1nc(Nc2ccccc2)nc(N2CCCC2)n1)c1c[nH]c2ccccc12 [Compound 89] | 4.90 | 6.0 |  | 4.12
14 | C(=N\Nc1nc(Nc2ccccc2)nc(N2CCOCC2)n1)/c1c[nH]c2ccccc12 [Compound 79] | 3.77 | max. | inactive | 
15 | Cc1ccc(Nc2nc(NN=Cc3ccc(Br)cc3)nc(Nc3ccccc3)n2)c(C)c1 [Compound 59] | 4.05 | max. | inactive | 
16 | O=[N+]([O-])c1ccc(Nc2nc(NN=Cc3cc(Cl)ccc3O)nc(N3CCOCC3)n2)cc1 [Compound 106] | 4.92 | 5.8 |  | 4.15
17 | O=C1Nc2ccccc2C1=NNc1nc(Nc2ccc([N+](=O)[O-])cc2)nc(N2CCOCC2)n1 [Compound 130] | 4.48 | 12.2 |  | 3.40
18 | COc1ccc([N+](=O)[O-])cc1C=NNc1nc(NCc2ccccc2)nc(Nc2ccccc2)n1 [Compound 54] | 4.05 | max. | inactive | 
19 | O=[N+]([O-])c1ccc(Nc2nc(NN=Cc3ccccc3I)nc(N3CCCCC3)n2)cc1 [Compound 124] | 4.52 | 10.0 |  | 3.52
20 | C(=NNc1nc(NCc2ccccc2)nc(Nc2ccccc2)n1)c1ccccc1 [Compound 84] | 3.92 | max. | inactive | 
21 | CCCCN(CCCC)c1nc(NN=Cc2cc3c(cc2Br)OCO3)nc(Nc2ccc([N+](=O)[O-])cc2)n1 [Compound 114] | 4.40 | 5.5 |  | 3.66
22 | CCCCN(CCCC)c1nc(NN=Cc2cccc(Br)c2)nc(Nc2ccc([N+](=O)[O-])cc2)n1 [Compound 83] | 3.73 | max. | inactive | 
23 | CCOc1ccc(C=NNc2nc(Nc3ccc([N+](=O)[O-])cc3)nc(N3CCCCC3)n2)cc1O [Compound 129] | 4.60 | 4.8 |  | 3.92
24 | CCCCN(CCCC)c1nc(N/N=C/c2c3ccccc3cc3ccccc23)nc(Nc2ccc([N+](=O)[O-])cc2)n1 [Compound 55] | 4.00 | max. | inactive | 
25 | O=[N+]([O-])c1cccc(C=NNc2nc(Nc3cccc4ccccc34)nc(N3CCOCC3)n2)c1O [Compound 64] | 4.14 | max. | inactive | 
26 | COc1ccc(/C=N/Nc2nc(Nc3ccc([N+](=O)[O-])cc3)nc(N3CCOCC3)n2)cc1 [Compound 75] | 3.80 | max. | inactive | 
27 | O=[N+]([O-])c1ccc(Nc2nc(NN=Cc3c4ccccc4cc4ccccc34)nc(N3CCCCC3)n2)cc1 [Compound 37] | 4.52 | max. | inactive | 
28 | Cc1[nH]c2ccccc2c1C=NNc1nc(Nc2ccc([N+](=O)[O-])cc2)nc(N2CCOCC2)n1 [Compound 128] | 4.66 | 4.5 |  | 4.00
